Data from patent publication US20250312345A1, “NON-COVALENT INHIBITORS OF THE MAIN PROTEASE OF SARS-COV-2 AND METHODS OF USE” (YALE UNIVERSITY, priority 2022, published 2025).
Like-named read-outs stand apart in the source and are kept apart here.

Legend:
[1] = Thermodynamic aqueous solubility, shake-flask; format: physicochemical; details: 48 h
Procedure: The calibration and measurement (after 48 h of stirring) were performed on the same day.

PAMPA assay = details: PBS pH 7.4, 5% DMSO, 18 hours, room temperature
[2] = system: normal human bronchial epithelial cells (NHBE); details: for CC50: human
Vero E6 cells [3] = details: African green monkey
SARS-CoV-2 M^pro = SARS-CoV-2 M^pro (Severe acute respiratory syndrome coronavirus 2, UniProt P0DTD1); test: biochemical; format: biochemical
SARS-CoV-2 replicon [4] = test: microbe, parasite or virus in culture; format: cell-based; details: for IC50: read-out: calculated IC50, compound alone
Vero E6 cells [5] = details: cited from earlier work
[6] = system: normal human bronchial epithelial cells (NHBE); details: cited from earlier work
SARS-CoV-2 replicon [7] = format: cell-based
[8] = system: panel of 35 targets including CYP450 isoforms, ions channels, receptors; test: In vitro pharmacological profiling against targets for adverse drug reactions; details: percentage inhibition at 10 μM
Procedure: (§1) Rows represent compounds tested and columns represent targets. Percentage inhibition at 10 μM concentration of the compounds is color-coded. A panel of 35 targets including CYP450 isoforms, ions channels, receptors examined for off-target effects.

HERG ion channel = HERG ion channel (Homo sapiens, UniProt Q12809); test: In vitro pharmacological profiling, HERG; details: at high concentrations
Chain of HERG ion channel (Q12809 whole entry): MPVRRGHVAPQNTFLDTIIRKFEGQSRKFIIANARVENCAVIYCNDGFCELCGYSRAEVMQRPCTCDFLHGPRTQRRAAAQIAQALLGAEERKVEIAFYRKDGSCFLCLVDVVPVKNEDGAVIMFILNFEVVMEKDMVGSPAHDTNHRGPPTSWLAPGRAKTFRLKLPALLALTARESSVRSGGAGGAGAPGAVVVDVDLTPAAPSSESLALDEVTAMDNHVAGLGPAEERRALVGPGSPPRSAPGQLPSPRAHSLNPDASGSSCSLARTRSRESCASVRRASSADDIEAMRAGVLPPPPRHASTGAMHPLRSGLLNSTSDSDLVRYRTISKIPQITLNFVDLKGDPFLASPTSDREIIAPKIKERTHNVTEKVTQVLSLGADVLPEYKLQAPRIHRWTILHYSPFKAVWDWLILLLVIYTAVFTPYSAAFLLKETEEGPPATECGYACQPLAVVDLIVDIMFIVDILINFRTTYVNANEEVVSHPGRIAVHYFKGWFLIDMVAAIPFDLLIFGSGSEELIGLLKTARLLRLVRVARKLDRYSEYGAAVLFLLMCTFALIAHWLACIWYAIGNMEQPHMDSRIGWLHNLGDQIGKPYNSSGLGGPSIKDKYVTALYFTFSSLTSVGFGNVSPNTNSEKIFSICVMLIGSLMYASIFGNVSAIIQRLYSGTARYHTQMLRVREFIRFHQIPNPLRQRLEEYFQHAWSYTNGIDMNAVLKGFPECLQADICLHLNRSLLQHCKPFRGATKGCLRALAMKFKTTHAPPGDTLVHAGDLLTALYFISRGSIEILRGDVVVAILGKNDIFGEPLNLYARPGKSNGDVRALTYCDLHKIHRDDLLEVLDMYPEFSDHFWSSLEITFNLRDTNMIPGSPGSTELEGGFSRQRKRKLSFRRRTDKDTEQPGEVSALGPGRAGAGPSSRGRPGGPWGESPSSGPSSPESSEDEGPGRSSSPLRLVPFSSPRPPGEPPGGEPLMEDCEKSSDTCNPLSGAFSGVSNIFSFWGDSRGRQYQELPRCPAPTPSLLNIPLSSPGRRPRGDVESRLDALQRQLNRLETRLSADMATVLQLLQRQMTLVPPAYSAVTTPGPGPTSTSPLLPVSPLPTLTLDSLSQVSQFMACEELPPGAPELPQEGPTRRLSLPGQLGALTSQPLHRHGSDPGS
Procedure: as §1

SARS-CoV-2 replication = test: Serum and lung tissue extracts tested on SARS-CoV-2 replication in cell culture; format: cell-based; details: extracts of mice dosed with compound 61
[9] = Britton-Robinson buffer pH 6.5, shake-flask, 21-22° C.
[10] = read-out: CC50 Vero E6, Table 3, marked g: Zhang et al., ACS Cent. Sci. 2021
[11] = read-out: CC50 NHBE, Table 3, marked g: Zhang et al., ACS Cent. Sci. 2021
[12] = 13 combined with remdesivir, MacSynergy II

Cn1cc(-c2cc(-c3cc(Cl)cc(OCc4scnc4C(F)(F)F)c3)c(=O)n(-c3cccnc3)c2)c(=O)[nH]c1=O [compound 64]
aq. sol. [1, 9]: 24.8 ± 1.4 µg/mL | PAMPA permeability (PAMPA assay): 1.16 ± 0.32 10^−6 cm/s | CC50 [2]: > 100 µM | CC50 (Vero E6 cells [3]): > 100 µM

N#Cc1ccccc1-c1cc(-c2cc(Cl)cc(OCCC(F)(F)F)c2)c(=O)n(-c2cccnc2)c1 [Compound 47, 2-(3-(3-Chloro-5-(3,3,3-trifluoropropoxy)phenyl)-2-oxo-2H-[1,3′-bipyridin]-5-yl)benzonitrile]
cytotoxicity towards NHBE cells [2]: more cytotoxic

N#Cc1ccccc1-c1cc(-c2cc(Cl)cc(Cl)c2)c(=O)n(-c2ccc[n+]([O-])c2)c1 [Cmpd 11]
IC50 (SARS-CoV-2 M^pro; Table 4): 5 to 20 µM

O=c1[nH]cc(-c2cc(-c3cc(Cl)cc(OCc4ccc(F)cc4Cl)c3)c(=O)n(-c3cccnc3)c2)c(=O)[nH]1 [Compound 48, 5-(3-(3-Chloro-5-((2-chloro-4-fluorobenzyl)oxy)phenyl)-2-oxo-2H-[1,3′-bipyridin]-5-yl)pyrimidine-2,4(1H,3H)-dione]
aq. sol. ([1]; pH 6.5): 25.0 ± 0.1 µg/mL | EC50 (SARS-CoV-2 replicon [4]; Table 3): 120 ± 0.2 µM | CC50 (Vero E6 cells [5]): 22 ± 8 µM | CC50 [6]: 25 ± 5 µM

Cc1ocnc1COc1cc(Cl)cc(-c2cc(-c3c[nH]c(=O)[nH]c3=O)cn(-c3cccnc3)c2=O)c1 [Cmpd 49]
aq. sol. [1, 9]: 7.6 ± 0.7 µg/mL

N#Cc1[nH]c(=O)ccc1-c1cc(-c2cccc(Cl)c2)c(=O)n(-c2cccnc2)c1 [Cmpd 23]
IC50 (SARS-CoV-2 M^pro; Table 4): ~10 µM

CCCOc1cc(Cl)cc(-c2cc(-c3ccccc3C#N)cn(-c3cccnc3)c2=O)c1 [Compound 13, 2-(3-(3-Chloro-5-propoxyphenyl)-2-oxo-2H-[1,3′-bipyridin]-5-yl)benzonitrile]
CC50 (Vero E6 cells [5]; [10]): 22 ± 7.2 µM | factor of improvement in potency over 9 (SARS-CoV-2 M^pro; IC50 of 13 versus 9): ca. 30 | CC50 [6, 11]: 20 ± 2 µM | mean antagonism volume (SARS-CoV-2 replicon [7]; [12]): 0 M^2% | mean synergy volume (SARS-CoV-2 replicon [7]; [12]): 30.8 M^2% | combination behavior with remdesivir (SARS-CoV-2 replicon [7]; range of combinations of 13 and remdesivir, FIG. 3): statistically significant synergistic behavior

Cn1cc(-c2cc(-c3cc(Cl)cc(OCc4ocnc4C(F)(F)F)c3)c(=O)n(-c3cccnc3)c2)c(=O)[nH]c1=O [Cmpd 65]
aq. sol. [1, 9]: 34.5 ± 0.3 µg/mL

O=c1nc(NO)ccn1[C@@H]1O[C@H](CO)[C@@H](O)[C@H]1O [EIDD-1931, reference compound]
IC50 (SARS-CoV-2 replicon [4]): 2.23 µM

Cn1cc(-c2cc(-c3cc(Cl)c(F)c(OCc4ccccc4Cl)c3)c(=O)n(-c3cccnc3)c2)c(=O)[nH]c1=O [Compound 61]
CC50 (in vitro): > 32 µM | aq. sol. [1, 9]: 116.5 ± 8.8 µg/mL | off-target effects [8]: no significant off-target effects | inhibition of HERG ion channel (HERG ion channel): minimal inhibition | CC50 [2]: > 32.5 µM | combination effect with EIDD-1931 (SARS-CoV-2 replicon [7]; combination of EIDD-1931 and compound 61, FIG. 6): synergistic effect | inhibition of SARS-CoV-2 replication by serum and lung tissue extracts (SARS-CoV-2 replication): exhibited inhibition | CC50 (Vero E6 cells [3]): > 32.5 µM

COc1cc(F)cc(-c2cc(-c3c[nH]c(=O)[nH]c3=O)cn(-c3cccnc3)c2=O)c1 [Cmpd 20]
IC50 (SARS-CoV-2 M^pro; Table 4): 10 to 100 µM

O=c1ccn(-c2cc(-c3cc(Cl)cc(OCC4CC4)c3)c(=O)n(-c3cccnc3)c2)c(=O)[nH]1 [Cmpd 54]
IC50 (SARS-CoV-2 M^pro; Table 4): 1.2 ± 0.1 µM

N#Cc1cccc(-c2cc(-c3c[nH]c(=O)[nH]c3=O)cn(-c3cccnc3)c2=O)c1 [Cmpd 19]
IC50 (SARS-CoV-2 M^pro; Table 4): ~10 µM

O=c1[nH]cc(-c2cc(-c3cc(Cl)cc(OCc4ocnc4C(F)(F)F)c3)c(=O)n(-c3cccnc3)c2)c(=O)[nH]1 [compound 62]
PAMPA permeability (PAMPA assay): 0.57 ± 0.09 10^−6 cm/s | CC50 [2]: > 100 µM | CC50 (Vero E6 cells [3]): > 100 µM

O=c1[nH]cc(-c2cc(-c3cc(Cl)c(F)c(OCc4ccccc4Cl)c3)c(=O)n(-c3cccnc3)c2)c(=O)[nH]1 [compound 43]
aq. sol. [1, 9]: 21.8 ± 0.9 µg/mL | PAMPA permeability (PAMPA assay): 0.73 ± 0.05 10^−6 cm/s | CC50 [2]: > 95 µM | CC50 (Vero E6 cells [3]): > 80 µM

O=c1[nH]cc(-c2cc(-c3cc(Cl)cc(OCC4CC4)c3)c(=O)n(-c3cncc4ccccc34)c2)c(=O)[nH]1 [Cmpd 66]
IC50 (SARS-CoV-2 M^pro; Table 4): 0.04 ± 0.002 µM

CCC(CC)COC(=O)[C@H](C)N[P@](=O)(OC[C@H]1O[C@@](C#N)(c2ccc3c(N)ncnn23)[C@H](O)[C@@H]1O)Oc1ccccc1 [remdesivir, reference compound]
CC50 (Vero E6 cells [5]; [10]): 72 ± 28 µM | CC50 [6, 11]: 41 ± 2 µM

O=c1c(-c2cc(Cl)cc(OCC3CC3)c2)cc(-c2ccc(F)cc2F)cn1-c1cccnc1 [Cmpd 55]
IC50 (SARS-CoV-2 M^pro; Table 4): ~10 µM

CN(C)c1ccc(C#N)c(-c2cc(-c3cc(Cl)cc(OCC4CC4)c3)c(=O)n(-c3cccnc3)c2)c1 [Cmpd 58]
IC50 (SARS-CoV-2 M^pro; Table 4): 1.3 ± 0.2 µM

O=c1[nH]cc(-c2cc(-c3cc(Cl)cc(OCc4scnc4C(F)(F)F)c3)c(=O)n(-c3cccnc3)c2)c(=O)[nH]1 [compound 63]
CC50 [2]: > 100 µM | CC50 (Vero E6 cells [3]): > 100 µM

Cn1ccnc1COc1cc(Cl)cc(-c2cc(-c3ccccc3C#N)cn(-c3cccnc3)c2=O)c1 [Cmpd 59]
IC50 (SARS-CoV-2 M^pro; Table 4): ~0.194 µM

Cn1cc(-c2cc(-c3cc(Cl)cc(OCC4CC4)c3)c(=O)n(-c3cccnc3)c2)c(=O)[nH]c1=O [compound 57]
aq. sol. [1, 9]: 14.2 ± 0.7 µg/mL | CC50 [2]: > 100 µM | CC50 (Vero E6 cells [3]): 82 µM

O=c1[nH]cc(-c2cc(-c3cc(Cl)cc(OCc4ccccc4)c3)c(=O)n(-c3cccnc3)c2)c(=O)[nH]1 [Compound 21]
IC50 (SARS-CoV-2 M^pro; read-out: IC50 (μM), inhibition of SARS-CoV-2 M^pro, Table 1 and text, 100 nM M^pro, FRET substrate, triplicate): 0.128 µM

N#Cc1ccccc1-c1cc(-c2cccc(Cl)c2)c(=O)n(-c2ccc[n+]([O-])c2)c1 [Cmpd 10]
IC50 (SARS-CoV-2 M^pro; Table 4): 15.6 ± 2.37 µM

CCNC(=O)COc1cc(Cl)cc(-c2cc(-c3ccccc3C#N)cn(-c3cccnc3)c2=O)c1 [Cmpd 33]
IC50 (SARS-CoV-2 M^pro; Table 4): 0.5 to 1 µM

N#Cc1ccccc1-c1cc(-c2cc(Cl)cc(Cl)c2)c(=O)n(-c2cccnc2)c1 [Compound 9, 2-(3-(3,5-Dichlorophenyl)-2-oxo-2H-[1,3′-bipyridin]-5-yl)benzonitrile]
IC50 (SARS-CoV-2 replicon [4]; Severe acute respiratory syndrome coronavirus 2, BHK): 0.0938 µM

N#Cc1ccc(F)cc1-c1cc(-c2cc(Cl)cc(OCC3CC3)c2)c(=O)n(-c2cccnc2)c1 [Cmpd 56]
IC50 (SARS-CoV-2 M^pro; Table 4): 0.427 ± 0.027 µM

Cn1cc(-c2cc(-c3cc(Cl)cc(OCCC(F)(F)F)c3)c(=O)n(-c3cccnc3)c2)c(=O)[nH]c1=O [compound 60]
aq. sol. [1, 9]: 57.0 ± 0.4 µg/mL | CC50 [2]: ~95 µM | CC50 (Vero E6 cells [3]): > 100 µM

Cc1scnc1COc1cc(Cl)cc(-c2cc(-c3c[nH]c(=O)[nH]c3=O)cn(-c3cccnc3)c2=O)c1 [compound 51]
CC50 [2]: 22 µM | CC50 (Vero E6 cells [3]): > 100 µM

Cc1ocnc1COc1cc(Cl)cc(-c2cc(-c3ccccc3C#N)cn(-c3cccnc3)c2=O)c1 [compound 50]
aq. sol. [1, 9]: 13.1 ± 0.3 µg/mL | PAMPA permeability (PAMPA assay): 3.04 ± 0.09 10^−6 cm/s

COc1ccc(-c2cc(-c3cccc(Cl)c3)c(=O)n(-c3cccnc3)c2)c(C#N)n1 [Cmpd 22]
IC50 (SARS-CoV-2 M^pro; Table 4): 10 to 100 µM

O=c1ccn(-c2cc(-c3ccccc3)c(=O)n(-c3cccnc3)c2)c(=O)[nH]1 [Cmpd 1]
IC50 (SARS-CoV-2 M^pro; Table 4): 100 µM

N#Cc1ccccc1-c1cc(-c2cc(Cl)cc(OCC3CC3)c2)c(=O)n(-c2cccnc2)c1 [Compound 39, 2-(3-(3-Chloro-5-(cyclopropylmethoxy)phenyl)-2-oxo-2H-[1,3′-bipyridin]-5-yl)benzonitrile]
aq. sol. [1, 9]: 3 ± 2 µg/mL | PAMPA permeability (PAMPA assay): 4.27 ± 0.07 10^−6 cm/s | CC50 (Vero E6 cells [5]): > 100 µM | CC50 [6]: > 100 µM

COc1cc(CCOc2cc(Cl)cc(-c3cc(-c4ccccc4C#N)cn(-c4cccnc4)c3=O)c2)cc(OC)c1 [Cmpd 30]
IC50 (SARS-CoV-2 M^pro; Table 4): > 1 µM
